In paper PMC10571041, “Activity of Single Insect Olfactory Receptors Triggered by Airborne Compounds Recorded in Self-Assembled Tethered Lipid Bilayer Nanoarchitectures” (ACS Applied Materials & Interfaces, 2023) one finds Kd data, which are given here for one compound.

pKd: −log10 of the molar value.

This experiment concerns the target T1, EcorOBP15-m1 (odorant binding protein) (Eupeodes corollae, UniProt A0A8F9RZG6, F82L).
T1 construct: recombinant protein expressed in E. coli
T1 sequence (A0A8F9RZG6 22-145 F82L): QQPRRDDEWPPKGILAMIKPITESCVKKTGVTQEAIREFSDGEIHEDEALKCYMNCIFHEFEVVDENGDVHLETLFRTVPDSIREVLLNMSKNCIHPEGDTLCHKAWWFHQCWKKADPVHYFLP
As to the kind of experiment: competitive fluorescence displacement of 1-NPN.

For orientation: pKd means the negative decadic logarithm of the Kd, by convention in mol/L. Read a high pKd as a low Kd.

The compound `CCCCCC(=O)OCC` [ethyl hexanoate] showed a pKd of 5.13.
